The results in this text go back to US8946457B2, “Flavone derivatives and their preparative method and medical use” (Tianjin Medical University, priority 2010, dated 2015).

In one assay the test system is IR HepG2 cells. Briefly: Glucose consumption assay in IR HepG2 cells. Particulars: for EC50: Homo sapiens, insulin-resistant HepG2 cells, 24 h incubation with compound, read-out: EC50, effects on glucose consumption in IR HepG2 cells; for Antidiabetic activity (glucose consumption) compared with metformin, in words: IR HepG2 cells, comparison with metformin. The assay is classed as cell-based, Human. The procedure: The compounds were dissolved in DMSO as stock. The final solution was 1:1,000 dilution of the stock in DMEM.
Human HepG2 cells were cultured in 96-well cluster plates, after achieving confluence, 10^−[…] insulin was treated for 36 h in serum-free and phenol red-free high-glucose DMEM. After this incubation, the cells were washed four times with high-glucose DMEM ([…]) and twice with phosphate-buffered saline. The cells were added to serum-free and phenol red-free high-glucose DMEM containing the various test compounds at different concentrations, incubated for 24 h, and then glucose content in the culture medium was measured using a glucose assay kit.
The enhancement ratio of glucose consumption (GC) was calculated as follows: GC %=(GC treatment group−GC of control group)/GC of control group×100.
The potencies of the products were expressed as median effective concentration (EC50) values.
All data were presented as the means±SD. SPSS10.0 was used for statistical analysis. Statistical significance was at a level of 5% (p<0.05).

The next assay relates to GLUT4. Nature of the assay: GLUT4myc translocation (cell surface GLUT4myc density, ELISA) in L6-GLUT4myc skeletal muscle cells. The assay is classed as cell-based, rat. Particulars: for Stimulation of GLUT4myc translocation, in words: L6-GLUT4myc muscle cells, 24 h incubation; for Effect on GLUT4 translocation compared with insulin: L6-GLUT4myc cells, insulin 100 nM positive control. The text has this: GLUT4 is the main glucose transporter in skeletal muscle. In the basal state, the majority of GLUT4 locate in vesicles of cytoplasma. In response to insulin, GLUT4 translocates to the cell membrane, therefore transport more glucose into cell. The rate of glucose transport is the rate-limiting step of glucose metabolism in skeletal muscle. […] In order to measure GLUT4 translocation, we use stable over expressing GLUT4myc rat muscle cell line, L6-GLUT4myc. The amount of GLUT4 on intact cell membrane was measured by ELISA with anti-myc antibody and HRP-conjugated secondary antibody. The OD value was detected at 492 nm.
The tested compounds were dissolved in DMSO as stock. The final solution was 1:1,000 dilution of the stock in low glucose DMEM.
The cells were treated with each compound at 2 to 5 different concentrations with triplicate in each group. The control group was treated with 0.1% DMSO. The blank group had no treatment. Insulin was used as positive control.
Myoblasts were cultured and differentiated into myotubes. Cells were serum starved for 4 hours, then incubated with different compounds at different concentrations for 24 hours or with 100 nM insulin for 20 min. Then cells were washed 3 times with ice-cold phosphate-butfered saline (PBS) supplemented with 1 mM Ca2+ and 1 mM Mg2+(PBS+), fixed with 3% (v/v) paraformaldehyde (PFA) in PBS+ for 10 min at 4° C., then 20 min at room temperature. The cells were washed twice with PBS+, quenched 10 min with 100 mM glycine in PBS+, blocked 10 min with ice-cold 5% (v/v) milk in PBS+, and reacted with polyclonal anti-myc antibody (1:250) for 1 hour. After washing 6 times with PBS+, cells reacted with HRP-bound goat anti-rabbit secondary antibody (1:5000) for 1 hour. The cells were washed 6 times with PBS+, and incubated with 1.0 ml OPD reagent and allowed to develop for 10-20 min. The reaction was stopped with 0.25 ml per well of 3 M HCl. Supernatants were collected and absorbance was measured at 492 nm. Background absorbance obtained in the absence of anti-myc antibody was subtracted from all values.
All data were presented as the means±SD. SPSS16.0 was used for statistical analysis. Data sets of more than two groups were compared using analysis of variance (One-Way ANOVA). Statistical significance was at a level of 5% (p<0.05).

In another assay the test system is ACC. Nature of the assay: Phosphorylation of ACC by western blotting in HepG2 cells. The assay is classed as cell-based, Human. Particulars: 2 h incubation, western blot. The procedure:
(§1) In this section, Western Blotting was used to assay the effect of these flavonoids on the phosphorylation of AMPK and ACC in HepG2 cells to illustrate the relationship between the mechanism of the flavonoids on glucose uptake and lipid metabolism and APMK signal pathway.
(§2) Whole cell lysate preparation: After serum-starving HepG2 cells, the cells were incubated with the flavonoids for 2 h, and then washed twice with PBS. Next, pre-chilled RIPA lysis buffer was added for 20 min at 4° C. The lysates were centrifuged at 13,000 rpm/min for 10 min at 4° C., and the supernatants were used for determination of total protein content. Forty micrograms of protein from the supernatant was aliquoted and its volume was adjusted to thirty microliters using deionized water and loading buffer. Lastly, the protein samples were heated at 65° C. for 15 min.
(§3) Western blot analysis: The samples were electrophoresed on 7.5% SDS-polyacrylamide gels, transferred to polyvinylidene fluoride membranes, blocked for 1 h in 5% (w/v) bovine serum albumin, and then incubated with primary antibodies overnight at 4° C. The membranes were washed three times with TBST and incubated with appropriate secondary antibodies conjugated to horse-radish peroxidase for 1 h at room temperature. The immunoreactive bands were detected using chemiluminescent reagent and autoradiographic film.

Another assay deals with AMPK. Nature of the assay: Phosphorylation of AMPK by western blotting in HepG2 cells. The format is cell-based, Human. Particulars: 2 h incubation, western blot. The procedure:
as §1, §2, §3

Entries after “also recorded” stand apart in the source; their conditions may differ.

Usually EC50 stands for the concentration giving half of the maximal effect.

With `CC(C)(C)c1ccc(/C=C/C(=O)COc2c(-c3ccc(O)cc3)oc3cc(O)cc(O)c3c2=O)cc1` [Compound I-9, 3-O-[(E)-4-(4-(tert-Butyl)phenyl)-2-oxobut-3-en-1-yl] kaempferol], in the assay on IR HepG2 cells, the half-maximal effective concentration (EC50) is 13 nM and the “Antidiabetic activity (glucose consumption) compared with metformin, in words” value is recorded as “comparable activity with that of metformin; also recorded: significantly superior to that of metformin”.

As to `COc1ccc(/C=C/C(=O)COc2c(-c3ccc(O)cc3)oc3cc(O)cc(O)c3c2=O)cc1O` [Compound I-7, 3-O-[(E)-4-(3-Hydroxy-4-methoxyphenyl)-2-oxobut-3-en-1-yl]kaempferol], the 50% effective concentration (EC50) with IR HepG2 cells was found to be 5070 nM.

For `CN(C)C(=N)N=C(N)N` [metformin, reference compound], the concentration for a half-maximal effect (EC50) in the assay on IR HepG2 cells stood at 270 nM.

For the compound `Cc1ccc(/C=C/C(=O)COc2c(-c3ccc(O)cc3)oc3cc(O)cc(O)c3c2=O)cc1` [Compound I-6, 3-O-[(E)-(2-Oxo-4-(p-tolyl)but-3-en-1-yl)] kaempferol], in the assay on IR HepG2 cells, the EC50 was found to be 10 nM and the “Antidiabetic activity (glucose consumption) compared with metformin, in words” value is “comparable activity with that of metformin; also recorded: significantly superior to that of metformin”.

As to `O=C(/C=C/c1ccc(O)c(Cl)c1)COc1c(-c2ccc(O)cc2)oc2cc(O)cc(O)c2c1=O` [Compound I-11, 3-O-[(E)-4-(3-Chloro-4-hydroxyphenyl)-2-oxobut-3-en-1-yl] kaempferol], in the assay with IR HepG2 cells, the half-maximal effective concentration (EC50) turned out to be 3560 nM.

In the case of `COc1cc(/C=C/C(=O)COc2c(-c3ccc(O)cc3)oc3cc(O)cc(O)c3c2=O)ccc1O` [Compound I-8, 3-O-[(E)-4-(3-Methoxy-4-hydroxyphenyl-)-2-oxobut-3-en-1-yl]kaempferol], in the assay with IR HepG2 cells, the concentration giving a half-maximal response (EC50) stood at 6190 nM.

Consider `COc1ccc(/C=C/C(=O)COc2c(-c3ccc(O)cc3)oc3cc(O)cc(O)c3c2=O)cc1` [Compound I-3, 3-O-[(E)-4-(4-Methoxyphenyl)-2-oxobut-3-en-1-yl] kaempferol], for which, in the assay with IR HepG2 cells, the half-maximal effective concentration (EC50) came to 149 nM and the “Antidiabetic activity (glucose consumption) compared with metformin, in words” value is “comparable activity with that of metformin; also recorded: significantly superior to that of metformin”. In the assay on GLUT4, the “Stimulation of GLUT4myc translocation, in words” value (from here on “Stimulation”) is listed as “significantly stimulate GLUT4myc translocation”.

As to `O=C(/C=C/c1ccc(O)cc1)COc1c(-c2ccc(O)cc2)oc2cc(O)cc(O)c2c1=O` [Compound I-1, 3-O-[(E)-4-(4-Hydroxyphenyl)-2-oxobut-3-en-1-yl] kaempferol], in the assay with IR HepG2 cells, the concentration for a half-maximal effect (EC50) stood at 368 nM and the “Antidiabetic activity (glucose consumption) compared with metformin, in words” value was “comparable activity with that of metformin”.

As for `O=C(/C=C/c1ccc(OCc2ccccc2)cc1)COc1c(-c2ccc(O)cc2)oc2cc(O)cc(O)c2c1=O` [Compound I-2, 3-O-[(E)-4-(4-(Benzyloxyphenyl))-2-oxobut-3-en-1-yl] kaempferol], the EC50 with IR HepG2 cells was found to be 658 nM. Further, the “Stimulation” value with GLUT4 is “significantly stimulate GLUT4myc translocation”.

Take `O=C(/C=C/c1ccc(Br)cc1)COc1c(-c2ccc(O)cc2)oc2cc(O)cc(O)c2c1=O` [Compound I-13, 3-O-[(E)-4-(4-Bromophenyl)-2-oxobut-3-en-1-yl] kaempferol]: in the assay with IR HepG2 cells, the EC50 is 393 nM.

For the compound `O=C(/C=C/c1ccc(Cl)c(Cl)c1)COc1c(-c2ccc(O)cc2)oc2cc(O)cc(O)c2c1=O` [Compound I-16, 3-O-[(E)-4-(3,4-Dichlorophenyl)-2-oxobut-3-en-1-yl] kaempferol], the 50% effective concentration (EC50) with IR HepG2 cells worked out at 2590 nM.

With `CCOc1ccc(/C=C/C(=O)COc2c(-c3ccc(O)cc3)oc3cc(O)cc(O)c3c2=O)cc1` [Compound I-4, 3-O-[(E)-4-(4-Ethoxyphenyl)-2-oxobut-3-en-1-yl] kaempferol], in the assay on IR HepG2 cells, the EC50 stood at 42 nM and the “Antidiabetic activity (glucose consumption) compared with metformin, in words” value was “comparable activity with that of metformin; also recorded: significantly superior to that of metformin”.

On to `O=C(/C=C/c1ccc(F)cc1)COc1c(-c2ccc(O)cc2)oc2cc(O)cc(O)c2c1=O` [Compound I-14, 3-O-[(E)-4-(4-Fluorophenyl)-2-oxobut-3-en-1-yl] kaempferol], for which the half-maximal effective concentration (EC50) in the assay on IR HepG2 cells came out at 669 nM. Also, the “Stimulation” value with GLUT4 is “significantly stimulate GLUT4myc translocation”.

With `O=C(/C=C/c1ccc(Cl)cc1)COc1c(-c2ccc(O)cc2)oc2cc(O)cc(O)c2c1=O` [Compound I-15, 3-O-[(E)-4-(4-Chlorophenyl)-2-oxobut-3-en-1-yl] kaempferol], in the assay on IR HepG2 cells, the EC50 came out at 1080 nM.

Regarding `CC(C)c1ccc(/C=C/C(=O)COc2c(-c3ccc(O)cc3)oc3cc(O)cc(O)c3c2=O)cc1` [Compound I-10, 3-O-[(E)-4-(4-Isopropylphenyl)-2-oxobut-3-en-1-yl] kaempferol], in the assay on IR HepG2 cells, the half-maximal effective concentration (EC50) is 15 nM and the “Antidiabetic activity (glucose consumption) compared with metformin, in words” value was “comparable activity with that of metformin; also recorded: significantly superior to that of metformin”. Further, the “Stimulation” value with GLUT4 is reported as “significantly stimulate GLUT4myc translocation”.

On to `N#Cc1ccc(/C=C/C(=O)COc2c(-c3ccc(O)cc3)oc3cc(O)cc(O)c3c2=O)cc1` [Compound I-12, 3-O-[(E)-4-(4-Cyanophenyl)-2-oxobut-3-en-1-yl] kaempferol], for which, in the assay on IR HepG2 cells, the EC50 was determined as 3 nM. The “Antidiabetic activity (glucose consumption) compared with metformin, in words” value in the assay on IR HepG2 cells is “comparable activity with that of metformin; also recorded: significantly superior to that of metformin; also recorded: strongest antidiabetic activity; also recorded: greater than that of marketed drug metformin”. Also, the “Phosphorylation of ACC” value with ACC is recorded as “significantly stimulate the phosphorylation”. Moreover, in the assay with AMPK, the “Phosphorylation of AMPK” value is “significantly stimulate the phosphorylation”. Further, the “Effect on GLUT4 translocation compared with insulin” value in the assay with GLUT4 (2 μg/ml) and in the assay with GLUT4 (5 μg/ml) was “higher effect on GLUT4 translocation than insulin; also recorded: strongest effect on promoting glucose transporter 4 translocation than insulin” in each case. In addition, in the assay on GLUT4, the “Stimulation” value is given as “strongest effect; also recorded: significantly stimulate GLUT4myc translocation”.

As to `O=C(/C=C/c1ccccc1)COc1c(-c2ccc(O)cc2)oc2cc(O)cc(O)c2c1=O` [Compound I-5, 3-O-[(E)-(2-Oxo-4-phenylbut-3-en-1-yl)] kaempferol], the EC50 in the assay with IR HepG2 cells stood at 473 nM.
